# Data from paper PMC5794198, “Inhibitors of Trypanosoma cruzi Sir2 related protein 1 as potential drugs against Chagas disease” (PLoS Neglected Tropical Diseases, 2018).
# “Also recorded” adds a separate entry of the source.
# What was measured:
# [1] = system: T. cruzi amastigotes; assay: High-content screening assay on intracellular T. cruzi amastigotes; assay type: cell-based, Trypanosoma cruzi; settings: Trypanosoma cruzi, C2C12, 72 h, Y strain in C2C12 host cells, 72 h; read-out: Anti-T. cruzi Activity Amastigotes (EC50 ± SD)
# Summary of the method: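 C2C12 host cells were infected 24 hr with Y strain tissue culture-derived trypomastigotes, then exposed to compound for 72 hrs. After paraformaldehyde fixation and DAPI staining, high-content imaging segmented host nuclei and parasite kinetoplast DNA. Read-out was the average number of amastigotes per host cell.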
# [2] = MTT cytotoxicity on MDCK cells; assay type: cell-based; settings: dog, MDCK; CC50 cell line / EC50 T. cruzi; read-out: Selectivity Index, MDCK cells
# Procedure: (§1) To evaluate toxicity towards mammalian cell lines (hepatocytes (Seralab), neurons and MDCK cells (ATCC); a renal cell line from dogs), all the compounds were assayed with MTT [66]. Additionally, for cardiotoxicity evaluation, where toxic effects in cardiomyocytes could be affecting their function before being lethal, a hERG assay was performed according to the manufacturer’s protocol Predictor hERG Fluorescence Polarization Assay (Invitrogen). Briefly, inhibition of hERG channel was analysed by competition of BNIPSpd and a high-affinity red fluorescent hERG channel ligand. BNIPSpd (9) was mixed with the ligand and membranes containing hERG channel, incubated for 2 hrs at RT and the fluorescence polarization was measured using 530 / 590 nm ex/em filters using the Synergy 2 plate reader (Biotek).
# [3] = system: MDCK cells; assay: MTT cytotoxicity on MDCK cells; assay type: cell-based; settings: MTT
# Procedure: as §1
# [4] = Snapshot pharmacokinetics in blood after intravenous injection; assay type: in vivo, BALB/c mice; settings: 5 mg/kg intravenous
# Procedure: The pharmacokinetic profile of BNIPSpd was determined following intravenous injection of 5 mg/kg in BALB/c mice. The blood was collected from tail veins after 0, 5, 15, 30, 45 min, 1, 3, 24, 48 and 72 h of drug administration. Blood concentrations of the drug were analysed by UHPLC- ESI-MS/MS.
# Supplementary file pntd.0006180.s006.tif: S5 Fig In vivo efficacy testing of BNIPSpd (9). A) Mice were infected with 10^4 Luc^+ trypomastigotes by intraperitoneal injection. Treatments (BZN, benznidazole at 100 mg/kg/day per os, and BNIPSpd (9) at 5 mg/kg/day by intravenous injection) were initiated 7 days after infection, as well as the respective controls (KP, Kolliphor HS 15 20% per os and DMSO 10% by intravenous injection). […] In the lower panel, bioluminescence signal of whole mice represented in average radiance (photons/sec/cm^2/sr) quantified before and after treatment. […] B) Snapshot Pharmacokinetics of BNIPSpd (9) in BALB/c mice by quantification of BNIPSpd (9) in the blood of mice by UHPLC-MS/MS ESI+ at different time-points after administration of a 5 mg/kg dose by intravenous injection. […] The dashed line represents the value of EC50 for BNIPSpd (9) in the in vitro assay against T. cruzi amastigotes, and the dotted line represents the lower limit of quantification of the technique. […]
# [5] = Solubility; assay type: physicochemical
compound,measurement,setting,value
"O=C1c2cccc3cccc(c23)C(=O)N1CCCNCCCCNCCCNCCCN1C(=O)c2cccc3cccc(c23)C1=O [Compound 9, BNIP Spermidine]",EC50,[1],2840 ± 180 nM
same,selectivity ratio,[2],35.2
same,Nephotoxicity (MDCK cells) cytotoxicity,[3],≥ 100 µM
same,Highest plasma concentration detected,[4]; at the 5 min time-point,1.70 µM
same,Blood level after the 3 h time-point,"[4]; 3 h up to 72 h, lower limit of quantification 8.1 nM, listed as BNIPSpd (9)",below the level of detection; also recorded: no longer detected
same,Aqueous solubility,[5],up to 70%
